In patent publication US20070141571A1, “Diagnostics and therapeutics for diseases associated with endothelial differentiation, sphingolipid g-protein-coupled receptor 6(edg6)” (BAYER HEALTHCARE AG, priority 2003, published 2007):

Assays:
[1] = test system: HEL/EDG6 platelet-like particles; test: PF4 release from platelet-like particles; assay type: cell-based, human; settings: 100 nM PMA or 50 μM ADP 10 min; 0.5 units/ml thrombin 2 min; data not shown
Method: During propagation of HEL/EDG6, we observed an accumulation of small particles in the culture supernatant. They were harvested by two-step sedimentation centrifugation and analyzed. […] In order to investigate if the platelet-like particles were functional, they were stimulated and the release of Platelet Factor IV (PF4) was measured as a platelet functional marker. […] The low sensitivity to ADP raised a question about the full functionality of the particles as platelets. In order to examine whether it is due to lack of the appropriate ADP receptors, we performed RT-PCR analysis. There are two ADP receptors identified in platelets, ubiquitous P2Y1, and platelet-specific P2Y12. We detected P2Y1 expression in HEL cells stably transformed with an empty vector (HEL/CV), HEL/EDG6, and platelets. In contrast, P2Y12 was detected in HEL/EDG6 and platelets, but not in HEL/CV. […] The low responsiveness of the particles to ADP thus is likely due to desensitization of the ADP receptors, since the particles were prepared from a long-term culture and had been inevitably exposed to cellular components during culture. Alternatively the density of the particles may not have been high enough to exert a positive feedback amplified by mediators released from nearby particles.
Isolation of platelets and platelet-like particles: Blood from healthy donors was collected into centrifuge tubes containing 20 mM sodium dyhydrogenphosphate dehydrate, 17 mM citric acid, 90 mM sodium citrate, and 13 mM Dextrose. HEL/S1P4 cells were cultured until cells released cytoplasmic particles (typically 10-18 days). Preparations were centrifuged at 200 g for 15 minutes. Supernatants obtained were centrifuged at 1600 g for 15 minutes. Sediments containing platelets or platelet-like particles were used in the experiments.
PF4 release: Platelet-like particles were suspended in Dulbecco's modified Eagle medium (DMEM) and stimulated with 100 nM PMA or 50 μM ADP for 10 minutes. […] Platelet factor 4 in supernatants was measured with ZymutestPF4 enzyme-linked immunosorbent assay (Hyphen BioMed, France).

HEL cells = test: morphogenesis assay, HEL parental cells; assay type: cell-based, human; settings: PMA 10 nM, 72 hours
Excerpt: Small particles (arrowhead) and a particle about to bud off from the cytosolic extension (arrow) are seen in HEL/S1P4 treated with PMA.
As reported, HEL parental cells develop into polyploidal large adherent cells with PMA treatment. […] Depositions of small particles and particles about to bud off from the end of the projections were also observed (FIG. 7). […] The observed prominent change of phenotype, thus can potentially be attributed to a rapid accumulation of S1P after treatment of PMA. As PMA is a pleiotropic substance, it is not easy to elucidate direct roles of sphingosine kinase in the phenomena.
Morphogenesis assay: Ten million cells were plated on a 24-well plate with or without 30 μM of the Rho-kinase inhibitor Y27632 (Calbiochem, CA). PMA (10 nM final) was added to the culture 30 minutes after plating. Cells were cultured for 72 hours and photographed. For studies using C3 exoenzyme, 2×10^5 cells in 0.5 ml culture medium were plated on a 24-well plate with or without 3 μg/ml of C3 exsoenzyme (Upstate, N.Y.), and cultured overnight. Fresh culture medium containing PMA and C3 exoenzyme was added to each well to give final PMA and C3 exoenzyme concentrations at 10 nM and 3 μg/ml, respectively. Cells were cultured for 72 hours and photographed.

HEL/EDG6 cells [2] = test: morphogenesis assay, HEL/EDG6; assay type: cell-based, human; settings: 72 hours
Method: (§1) To obtain an insight into potential mechanisms, we treated HEL/EDG6 and HEL/CV with a variety of cytoskeletal modulators in the presence of PMA. […] To test if suppression of the Rho-kinase pathway is responsible for the formation of cytosolic extensions, the cells were treated with C3 exoenzyme, a Rho inhibitor, before PMA treatment. […] Alternatively, activation of other Rho family GTPases might cause the process formation, since reciprocal regulation between Rho and Rac/Cdc42 is observed in some cell types [E. E. Sandera, et al., (1999)]. Activation of Rho, Rac, and Cdc42, were investigated in HEL/CV and HEL/EDG6 after serum starvation and subsequent stimulation with S1P.

Edg-6 [3] = biological target: T1, Edg-6 (Homo sapiens, UniProt O95977); settings: cited from earlier work; for increase in cytosolic Ca(2+) concentration: Edg-6-transfected CHO cells compared with vector-transfected cells
T1 construct: host or cells: Edg-6-transfected Chinese hamster ovary (CHO) cells and K562 cells
T1 sequence (O95977 1-384): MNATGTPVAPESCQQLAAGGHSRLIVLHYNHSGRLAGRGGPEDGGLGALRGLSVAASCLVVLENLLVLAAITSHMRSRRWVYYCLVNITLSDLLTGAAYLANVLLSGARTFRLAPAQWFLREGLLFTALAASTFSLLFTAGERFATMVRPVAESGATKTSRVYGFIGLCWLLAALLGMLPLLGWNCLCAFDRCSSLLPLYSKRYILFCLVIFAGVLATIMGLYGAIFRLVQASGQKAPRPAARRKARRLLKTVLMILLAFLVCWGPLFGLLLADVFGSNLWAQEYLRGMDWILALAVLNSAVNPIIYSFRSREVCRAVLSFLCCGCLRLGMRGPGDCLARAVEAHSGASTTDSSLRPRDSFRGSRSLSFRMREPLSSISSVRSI

HEL/EDG6 cells [4] = test: Rho, Rac and cdc42 assays, HEL/EDG6; assay type: cell-based, human; settings: HEL/EDG6, serum starvation, 1 μM S1P 1 minute
Method: as §1
(§2) Rho, Rac and cdc42 assays: Cells (5×10^6 for Cdc42 and Rac, 1×10^7 for Rho) were harvested and lysed with 50 mM Tris (pH 7.5), 100 mM NaCl, 1% Triton X-100, 5 mM MgCl2 containing protease inhibitors (Complete™, EDTA-free, Roche Diagnostics, Germany). Cell lysates were clarified by centrifugation at 15000 g at 4° C. for 5 minutes, and incubated with PAK-1 PBD agarose, Rhotekin RBD agarose (Upstate, N.Y.) and GST-WASP GBD beads idndly provided by Tatsuo Kinashi, Kyoto University) at 4° C. for 45 minutes with constant rotation. […] The amounts of Rho, Rac, cdc42, and WASP in 20 μg of whole cell lysates were also analyzed by Western Blot. After incubating with HRP-conjugated secondary antibodies, the blots were developed with ECL-Plus (Amersham Biosciences, UK). For examination of Rho, Rac and cdc42 responses to S1P treatment, cells were maintained in RPMI1640 containing 0.1% fatty-acid free BSA (Sigma) overnight. Cells were harvested and suspended in PBS, and stimulated with 1 μM S1P at 37° C. for 1 minute before cell lysis. Rho, Rac, and cdc42 in 20 μg of the whole cell lysates were also analyzed by Western blot for examination of protein expression. WASP in 20 μg of the whole cell lysates was detected using an anti-WASP antibody (Sigma, Mo.).

Edg-6 [5] = biological target: T1, Edg-6; settings: Edg-6-transfected CHO and K562 cells; cited from earlier work
[6] = test system: CD34+ hematopoietic progenitor cells; test: megakaryocyte colony formation assay; assay type: cell-based, human
Method: Mean colony number per well of CD41 positive (CFU-MK) and negative (non-MK) colonies are plotted with SD (n=4 to 8, left panels). […] The experiment was repeated twice with each progenitor and obtained similar results. # • (B) Megakaryocyte differentiation was induced for 12 days from the CD34^+ progenitor cells and the cells were separated for CD41 expression. RNAs from non-differentiated cells (Day 0), differentiated cells (Day 12), and peripheral platelets were analyzed for expression of S1P receptors by RT-PCR. Expression of 2-microglobulin is shown as an internal control.
S1P was added to a megakaryocyte colony formation assay using CD34^+ hematopoietic progenitor cells in semi-solid culture. […] In order to examine the expression pattern of each S1P receptor during the in vitro maturation of megakaryocytes, CD34^+ progenitor cells were cultured in a liquid medium defined for megakaryocyte development, sorted for CD41 expression on day 12 of the culture, and subjected to RT-PCR analysis. Expression of S1P5 receptor in CD34^+ cells on day 0 was low and S1P1, S1P2, S1P3, and EDG6 were not detectable after 40 cycles (FIG. 6B). […] The pattern matched, although with different relative band intensities for EDG6 and S1P2, with the one seen in the platelet sample. […] The exact mechanisms by which S1P affects the differentiation however, remain to be elucidated. Among the receptors for S1P, we were most interested in the function of EDG6 in megakaryocytopoiesis, because EDG6 is expressed in the lung, and the lung is the second most prominent site of platelet production in body with a large population of terminally differentiated megakaryocytes in pulmonary microvessels. […]
Colony formation assay and preparation of CD41^+ cells: Cord blood CD34^+ cells and bone marrow CD34^+ cells (Bio Whittaker, Md.) were cultured in serum-free Iscove's modified Dulbecco's medium for 2 days. […] The chambers were incubated at 37° C. in a 5% CO2 atmosphere for 12 days then megakaryocyte colonies (CFU-MK) were stained for CD41 and scored following the manufacturer's procedure. […]

HEL/CV cells [7] = test: Rho, Rac and cdc42 assays, HEL/CV; assay type: cell-based, human; settings: serum starvation, 1 μM S1P 1 minute
Method: as §1, §2

HEL/CV cells [8] = test: morphogenesis assay, HEL/CV; assay type: cell-based, human; settings: with PMA 10 nM, Y27632 30 μM or C3 exoenzyme 3 μg/ml, 72 hours
Method: as §1

Nc1ncnc2c1ncn2[C@@H]1O[C@H](COP(=O)(O)OP(=O)(O)O)[C@@H](O)[C@H]1O [ADP]
release of Platelet Factor IV (PF4) [1]: only minor amounts

CCCCCCCCCCCCCC(=O)O[C@@H]1[C@@H](C)[C@@]2(O)[C@@H](C=C(CO)C[C@]3(O)C(=O)C(C)=C[C@@H]23)[C@@H]2C(C)(C)[C@]12OC(C)=O [PMA]
cell morphology after PMA treatment (HEL cells): induced large adherent cells
cell morphology after PMA treatment (HEL/EDG6 cells [2]; HEL/EDG6, PMA 10 nM): formation of polyploidal large adherent cells with extended cytoplasmic projections resembling megakaryocyte processes
release of Platelet Factor IV (PF4) [1]: significant amounts

CCCCCCCCCCCCC/C=C/[C@@H](O)[C@@H](N)COP(=O)(O)O [S1P, sphingosine 1-phosphate]
increase in cytosolic Ca(2+) concentration (Edg-6 [3]): clearly enhanced
GTP-Rac (HEL/EDG6 cells [4]): up-regulation
GTP-Cdc42 (HEL/EDG6 cells [4]; data not shown): increased
GTP-Rho (HEL/EDG6 cells [4]; data not shown): decreased
displacement of [(3)H]S1P binding (Edg-6 [5]): displaced the [(3)H]S1P binding
number of megakaryocyte colony forming units (CFU-MK) ([6]; 10 μM S1P at beginning of culture, CD34+ cells from bone marrow and cord blood, 12 days): significantly reduced
CFU-nonMK numbers ([6]; 10 μM S1P, CD34+ cells from bone marrow and cord blood): remained unchanged or increased slightly
% CFU-MK ([6]; 10 μM S1P, cord blood or bone marrow CD34+ cells, Student's t-test): Significantly lower
GTP-Rac (HEL/CV cells [7]): up-regulation
GTP-Cdc42 increase (HEL/CV cells [7]; data not shown): not in HEL/CV cells
GTP-Rho decrease (HEL/CV cells [7]; data not shown): not in HEL/CV cells

CCCCCCCCCCCCC/C=C/[C@@H](O)[C@@H](N)COP(=O)([O-])OCC[N+](C)(C)C [SPC]
increase in cytosolic Ca(2+) concentration (Edg-6 [3]): clearly enhanced
displacement of [(3)H]S1P binding (Edg-6 [5]): displaced the [(3)H]S1P binding

C[C@@H](N)[C@H]1CC[C@H](C(=O)Nc2ccncc2)CC1 [Y27632]
cytosolic extensions / morphology with cytoskeletal modulator (HEL/CV cells [8]): induced cytosolic extensions
cytosolic extensions / morphology with cytoskeletal modulator (HEL/EDG6 cells [2]; HEL/EDG6, with PMA 10 nM, Y27632 30 μM or C3 exoenzyme 3 μg/ml): did not induce any further effect

lysophosphatidic acid [LPA]
increase in cytosolic Ca(2+) concentration (Edg-6 [3]): without change
displacement of [(3)H]S1P binding (Edg-6 [5]): inactive

pertussis toxin
effect on lipid-induced actions (S1P, SPC) (Edg-6 [3]; CHO and K562 cells expressing Edg-6, pertussis toxin treatment): markedly suppressed

thrombin
release of Platelet Factor IV (PF4) [1]: significant amounts
